The text below walks through data of article PMC7956620 (Molecules, 2021).

Holding throughout (assay type): cell-based
Details in all cases: 100 µM chanoclavine, read-out: Inhibition Percentage (%)

In experiment [1] the target is T1, 5-HT3A receptor V133A mutant (Homo sapiens, UniProt P46098, V128A).
T1 construct: host or cells: Xenopus laevis oocytes injected with in vitro transcribed mRNA
T1 sequence (P46098 24-478 V128A): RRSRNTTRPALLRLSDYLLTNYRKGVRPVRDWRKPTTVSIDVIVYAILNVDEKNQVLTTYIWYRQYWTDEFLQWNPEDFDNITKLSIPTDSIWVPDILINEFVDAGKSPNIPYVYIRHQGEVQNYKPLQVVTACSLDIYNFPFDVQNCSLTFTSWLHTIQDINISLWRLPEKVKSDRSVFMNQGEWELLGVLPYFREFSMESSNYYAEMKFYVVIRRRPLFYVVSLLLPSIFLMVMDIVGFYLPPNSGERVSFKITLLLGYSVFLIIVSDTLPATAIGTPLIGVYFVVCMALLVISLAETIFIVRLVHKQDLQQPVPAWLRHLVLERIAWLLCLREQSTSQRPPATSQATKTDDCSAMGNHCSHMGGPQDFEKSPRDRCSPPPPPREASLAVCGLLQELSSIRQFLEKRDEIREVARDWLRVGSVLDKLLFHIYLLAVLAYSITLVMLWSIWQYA
Kind of experiment: two-electrode voltage clamp, V133A mutant receptor in Xenopus oocytes. The procedure:
(§1) The site-directed mutation of one or two amino acids was performed using sense and antisense primers and Pfu polymerase (QuickChange Site-Directed Mutagenesis Kit; Agilent, Santa Clara, CA, USA) and amplified by polymerase chain reaction (PCR) to increase the target domain. After removing the existing methylated cDNA using Dpn Ⅰ, the PCR products were transformed into Escherichia coli strain DH5α. The cDNA of the 5-HT3A receptor was linearized by Xho Ⅰ at the end of the multi-cloning site, followed by transcription using T7 polymerase and a transcription kit (mMESSAGE mMACHINE T7 Transcription Kit; Thermo Fisher Scientific, Waltham, MA, USA). […]
(§2) To isolate oocytes, female Xenopus laevis were put into a container filled with ice and left for about one hour. […] When the Xenopus oocytes were ready for injection, 50 ng of mRNA was injected with a nanoliter injector (Drummond Scientific, Vernon Hills, IL, USA). […]
(§3) The oocytes in which mRNA was expressed during the incubation period allowed for the estimation of channel or receptor properties for observing drug and ligand potential interactions using a two-electrode voltage clamp (OC-725C; Warner Instruments, Hamden, CT, USA) and Digidata (1322A; Molecular Devices, Sunnyvale, CA, USA). […] The voltage and current electrodes were filled with 3 M KCl (0.3–0.7 MΩ) and analyzed at a −80 mV holding potential. […]

For experiment [2], the target named is T2, 5-HT3A receptor I139A mutant (Homo sapiens, UniProt P46098, I134A/I139A).
T2 construct: host or cells: Xenopus laevis oocytes injected with in vitro transcribed mRNA
T2 sequence (P46098 24-478 I134A/I139A): T1 sequence (P46098 24-478 V128A) with A105V, I111A, I116A
Put plainly: two-electrode voltage clamp, I139A mutant receptor in Xenopus oocytes. How it is done: as §1, §2, §3

The target in experiment [3] is T3, 5-HT3A receptor R196A mutant (Homo sapiens, UniProt P46098, R191A).
T3 construct: host or cells: Xenopus laevis oocytes injected with in vitro transcribed mRNA
T3 sequence (P46098 24-478 R191A): T1 sequence (P46098 24-478 V128A) with A105V, R168A
Kind of experiment: two-electrode voltage clamp, R196A mutant receptor in Xenopus oocytes. How it is done: as §1, §2, §3

Structures are written as SMILES. Where a chain is given by its changes, count along the chain named.

As for `CN[C@@H]1Cc2c[nH]c3cccc(c23)[C@H]1/C=C(\C)CO` [chanoclavine], the inhibition at 100 µM in experiment [1] was found to be 67.2 ± 9.9%; in experiment [2], 92.8 ± 4.9%; in experiment [3], 82.1 ± 2.5%.
